Consider two compounds from ChEMBL document CHEMBL5303573, “Mapping human microbiome drug metabolism by gut bacteria and their genes” (Nature, 2019).

SMILES strings stand for the structures.

A short description of one series: The drug is tested on Bacteroides dorei strain: DSM17855 for biotransformation. The drug concentrations were measured before and after a 12-h incubation by liquid-chromatography-coupled mass spectrometry (LC–MS). Particulars: phocaeicola dorei, 2 µM.
Consider `CNNCc1ccc(C(=O)NC(C)C)cc1` [PROCARBAZINE], for which the “Bacterial Biotransformation” value is recorded as “Compound NOT metabolized”.

Regarding `Cc1cn([C@H]2C[C@H](N=[N+]=[N-])[C@@H](CO)O2)c(=O)[nH]c1=O` [ZIDOVUDINE], the “Bacterial Biotransformation” value is on record as “Compound metabolized”.

A short description of another series: The drug is tested on Bacteroides fragilis strain: HMW610 for biotransformation. The drug concentrations were measured before and after a 12-h incubation by liquid-chromatography-coupled mass spectrometry (LC–MS). The conditions noted are these: 2 µM.
Turning to `CNNCc1ccc(C(=O)NC(C)C)cc1` [PROCARBAZINE], the “Bacterial Biotransformation” value is given as “Compound metabolized”.

Take `Cc1cn([C@H]2C[C@H](N=[N+]=[N-])[C@@H](CO)O2)c(=O)[nH]c1=O` [ZIDOVUDINE]: the “Bacterial Biotransformation” value was “Compound NOT metabolized”.

The nature of the next series: The drug is tested on Edwardsiella tarda strain: ATCC23685 for biotransformation. The drug concentrations were measured before and after a 12-h incubation by liquid-chromatography-coupled mass spectrometry (LC–MS). Particulars: 2 µM.
As to `CNNCc1ccc(C(=O)NC(C)C)cc1` [PROCARBAZINE], the “Bacterial Biotransformation” value was “Compound NOT metabolized”.

With `Cc1cn([C@H]2C[C@H](N=[N+]=[N-])[C@@H](CO)O2)c(=O)[nH]c1=O` [ZIDOVUDINE], the “Bacterial Biotransformation” value is reported as “Compound NOT metabolized”.

For the next series the following is noted: bacteroides eggerthii, 12 h, 2 µM.
Description: The drug is tested on Bacteroides eggerthii strain: DSM20697 for biotransformation. The drug concentrations were measured before and after a 12-h incubation by liquid-chromatography-coupled mass spectrometry (LC–MS)
As to `Cc1cn([C@H]2C[C@H](N=[N+]=[N-])[C@@H](CO)O2)c(=O)[nH]c1=O` [ZIDOVUDINE], the “Bacterial Biotransformation” value is listed as “Compound metabolized”.

A short description of another series: The drug is tested on Clostridium asparagiforme strain: DSM15981 for biotransformation. The drug concentrations were measured before and after a 12-h incubation by liquid-chromatography-coupled mass spectrometry (LC–MS). It counts as ADME. Further details: dose 2 uM, timepoint 0 vs 12 hours. The conditions noted are these: enterocloster asparagiformis, 2 µM.
`CNNCc1ccc(C(=O)NC(C)C)cc1` [PROCARBAZINE]: the “Bacterial Biotransformation” value was “Compound NOT metabolized”.

`Cc1cn([C@H]2C[C@H](N=[N+]=[N-])[C@@H](CO)O2)c(=O)[nH]c1=O` [ZIDOVUDINE]: the “Bacterial Biotransformation” value is reported as “Compound NOT metabolized”.

The nature of another series: The drug is tested on Collinsella intestinalis strain: DSM13280 for biotransformation. The drug concentrations were measured before and after a 12-h incubation by liquid-chromatography-coupled mass spectrometry (LC–MS). Particulars: 2 µM.
As to `CNNCc1ccc(C(=O)NC(C)C)cc1` [PROCARBAZINE], the “Bacterial Biotransformation” value is listed as “Compound NOT metabolized”.

The next series in a line: The drug is tested on Bacteroides coprophilus strain: DSM18228 for biotransformation. The drug concentrations were measured before and after a 12-h incubation by liquid-chromatography-coupled mass spectrometry (LC–MS). Particulars: 2 µM.
Consider `CNNCc1ccc(C(=O)NC(C)C)cc1` [PROCARBAZINE], for which the “Bacterial Biotransformation” value is reported as “Compound NOT metabolized”.

As for `Cc1cn([C@H]2C[C@H](N=[N+]=[N-])[C@@H](CO)O2)c(=O)[nH]c1=O` [ZIDOVUDINE], the “Bacterial Biotransformation” value is “Compound NOT metabolized”.

The next series is described as follows: The drug is tested on Providencia stuartii strain: ATCC25827 for biotransformation. The drug concentrations were measured before and after a 12-h incubation by liquid-chromatography-coupled mass spectrometry (LC–MS). The conditions noted are these: 2 µM.
Regarding `CNNCc1ccc(C(=O)NC(C)C)cc1` [PROCARBAZINE], the “Bacterial Biotransformation” value was “Compound NOT metabolized”.

With `Cc1cn([C@H]2C[C@H](N=[N+]=[N-])[C@@H](CO)O2)c(=O)[nH]c1=O` [ZIDOVUDINE], the “Bacterial Biotransformation” value is “Compound NOT metabolized”.

The next series in a line: The drug is tested on Anaerococcus hydrogenalis strain: DSM7454 for biotransformation. The drug concentrations were measured before and after a 12-h incubation by liquid-chromatography-coupled mass spectrometry (LC–MS). The conditions noted are these: 2 µM.
Turning to `CNNCc1ccc(C(=O)NC(C)C)cc1` [PROCARBAZINE], the “Bacterial Biotransformation” value is recorded as “Compound NOT metabolized”.

For the compound `Cc1cn([C@H]2C[C@H](N=[N+]=[N-])[C@@H](CO)O2)c(=O)[nH]c1=O` [ZIDOVUDINE], the “Bacterial Biotransformation” value is reported as “Compound metabolized”.

Another series is described as follows: The drug is tested on Bifidobacterium longum subsp. Infantis strain: CCUG52486 for biotransformation. The drug concentrations were measured before and after a 12-h incubation by liquid-chromatography-coupled mass spectrometry (LC–MS). The conditions noted are these: 2 µM.
On to `CNNCc1ccc(C(=O)NC(C)C)cc1` [PROCARBAZINE], for which the “Bacterial Biotransformation” value was “Compound NOT metabolized”.

With `Cc1cn([C@H]2C[C@H](N=[N+]=[N-])[C@@H](CO)O2)c(=O)[nH]c1=O` [ZIDOVUDINE], the “Bacterial Biotransformation” value is on record as “Compound NOT metabolized”.

For a further series the following is noted: enterocloster bolteae, 12 h, 2 µM.
Description: The drug is tested on Clostridium bolteae strain: ATCCBAA-613 for biotransformation. The drug concentrations were measured before and after a 12-h incubation by liquid-chromatography-coupled mass spectrometry (LC–MS)
Take `CNNCc1ccc(C(=O)NC(C)C)cc1` [PROCARBAZINE]: the “Bacterial Biotransformation” value was “Compound NOT metabolized”.

As to `Cc1cn([C@H]2C[C@H](N=[N+]=[N-])[C@@H](CO)O2)c(=O)[nH]c1=O` [ZIDOVUDINE], the “Bacterial Biotransformation” value is given as “Compound NOT metabolized”.

The nature of a further series: The drug is tested on Collinsella aerofaciens strain: ATCC25986 for biotransformation. The drug concentrations were measured before and after a 12-h incubation by liquid-chromatography-coupled mass spectrometry (LC–MS). The conditions noted are these: 2 µM.
On to `CNNCc1ccc(C(=O)NC(C)C)cc1` [PROCARBAZINE], for which the “Bacterial Biotransformation” value is “Compound NOT metabolized”.

The nature of a further series: The drug is tested on Parabacteroides merdae strain: ATCC43184 for biotransformation. The drug concentrations were measured before and after a 12-h incubation by liquid-chromatography-coupled mass spectrometry (LC–MS). The conditions noted are these: 2 µM.
Regarding `CNNCc1ccc(C(=O)NC(C)C)cc1` [PROCARBAZINE], the “Bacterial Biotransformation” value was “Compound NOT metabolized”.

Consider `Cc1cn([C@H]2C[C@H](N=[N+]=[N-])[C@@H](CO)O2)c(=O)[nH]c1=O` [ZIDOVUDINE], for which the “Bacterial Biotransformation” value is “Compound NOT metabolized”.

The nature of a further series: The drug is tested on Bacteroides sp. WH2 strain: WH2 for biotransformation. The drug concentrations were measured before and after a 12-h incubation by liquid-chromatography-coupled mass spectrometry (LC–MS). Particulars: bacteroides sp. wh2, 12 h, 2 µM.
On to `Cc1cn([C@H]2C[C@H](N=[N+]=[N-])[C@@H](CO)O2)c(=O)[nH]c1=O` [ZIDOVUDINE], for which the “Bacterial Biotransformation” value is “Compound NOT metabolized”.

For another series the following is noted: bacteroides intestinalis, 12 h, 2 µM.
Description: The drug is tested on Bacteroides intestinalis strain: DSM17393 for biotransformation. The drug concentrations were measured before and after a 12-h incubation by liquid-chromatography-coupled mass spectrometry (LC–MS)
Regarding `Cc1cn([C@H]2C[C@H](N=[N+]=[N-])[C@@H](CO)O2)c(=O)[nH]c1=O` [ZIDOVUDINE], the “Bacterial Biotransformation” value is on record as “Compound NOT metabolized”.

For the next series the following is noted: limosilactobacillus reuteri cf48-3a, 12 h, 2 µM.
Description: The drug is tested on Lactobacillus reuteri CF48-3A strain: BEI HM-102 for biotransformation. The drug concentrations were measured before and after a 12-h incubation by liquid-chromatography-coupled mass spectrometry (LC–MS)
Take `CNNCc1ccc(C(=O)NC(C)C)cc1` [PROCARBAZINE]: the “Bacterial Biotransformation” value is recorded as “Compound NOT metabolized”.

Turning to `Cc1cn([C@H]2C[C@H](N=[N+]=[N-])[C@@H](CO)O2)c(=O)[nH]c1=O` [ZIDOVUDINE], the “Bacterial Biotransformation” value is recorded as “Compound NOT metabolized”.

The conditions of the next series: bacteroides stercoris, 12 h, 2 µM.
Description: The drug is tested on Bacteroides stercoris strain: ATCC43183 for biotransformation. The drug concentrations were measured before and after a 12-h incubation by liquid-chromatography-coupled mass spectrometry (LC–MS)
For the compound `CNNCc1ccc(C(=O)NC(C)C)cc1` [PROCARBAZINE], the “Bacterial Biotransformation” value was “Compound NOT metabolized”.

In the case of `Cc1cn([C@H]2C[C@H](N=[N+]=[N-])[C@@H](CO)O2)c(=O)[nH]c1=O` [ZIDOVUDINE], the “Bacterial Biotransformation” value is “Compound metabolized”.

For another series the following is noted: bacteroides thetaiotaomicron, 12 h, 2 µM.
Description: The drug is tested on Bacteroides thetaiotaomicron strain: 7330 for biotransformation. The drug concentrations were measured before and after a 12-h incubation by liquid-chromatography-coupled mass spectrometry (LC–MS)
For the compound `CNNCc1ccc(C(=O)NC(C)C)cc1` [PROCARBAZINE], the “Bacterial Biotransformation” value was “Compound NOT metabolized”.

`Cc1cn([C@H]2C[C@H](N=[N+]=[N-])[C@@H](CO)O2)c(=O)[nH]c1=O` [ZIDOVUDINE]: the “Bacterial Biotransformation” value is reported as “Compound NOT metabolized”.

Another series in a line: The drug is tested on Bacteroides pectinophilus strain: ATCC43243 for biotransformation. The drug concentrations were measured before and after a 12-h incubation by liquid-chromatography-coupled mass spectrometry (LC–MS). Particulars: 2 µM.
On to `CNNCc1ccc(C(=O)NC(C)C)cc1` [PROCARBAZINE], for which the “Bacterial Biotransformation” value is “Compound NOT metabolized”.

With `Cc1cn([C@H]2C[C@H](N=[N+]=[N-])[C@@H](CO)O2)c(=O)[nH]c1=O` [ZIDOVUDINE], the “Bacterial Biotransformation” value is given as “Compound NOT metabolized”.

A further series is described as follows: The drug is tested on Ruminococcus gnavus strain: ATCC29149 for biotransformation. The drug concentrations were measured before and after a 12-h incubation by liquid-chromatography-coupled mass spectrometry (LC–MS). Particulars: mediterraneibacter gnavus, 2 µM.
Consider `CNNCc1ccc(C(=O)NC(C)C)cc1` [PROCARBAZINE], for which the “Bacterial Biotransformation” value is given as “Compound NOT metabolized”.
